System: NOMO1
Assay: cell viability relative to DMSO control; higher = less cytotoxic
Settings: 48 h
Outline: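 Library compounds in DMSO were pin-dosed in an 11-point threefold series (47 μM to 0.79 nM) onto leukemia cells in 1536-well plates (5 μl). Plates held 500 cells/well of NOMO1 or SEM or 1000 cells/well of P12-Ichikawa, each adapted for at least four passages in each medium. Luminescence was read with CellTiter-Glo One after 48 h at 37°C. Viability means the per-plate percentage relative to DMSO wells, using cell-free wells as background.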

[1] = HPLM + 10% dialyzed FBS, 0.000781 µM
[2] = HPLM + 10% dialyzed FBS, 0.00234 µM
[3] = HPLM + 10% dialyzed FBS, 0.00702 µM
[4] = HPLM + 10% dialyzed FBS, 0.0211 µM
[5] = HPLM + 10% dialyzed FBS, 0.0632 µM
[6] = HPLM + 10% dialyzed FBS, 0.19 µM
[7] = HPLM + 10% dialyzed FBS, 0.569 µM
[8] = HPLM + 10% dialyzed FBS, 1.71 µM
[9] = HPLM + 10% dialyzed FBS, 5.12 µM
[10] = HPLM + 10% dialyzed FBS, 15.4 µM
[11] = HPLM + 10% dialyzed FBS, 46.1 µM
[12] = RPMI 5 mM glucose + 10% FBS, 0.000781 µM
[13] = RPMI 5 mM glucose + 10% FBS, 0.00234 µM
[14] = RPMI 5 mM glucose + 10% FBS, 0.00702 µM
[15] = RPMI 5 mM glucose + 10% FBS, 0.0211 µM
[16] = RPMI 5 mM glucose + 10% FBS, 0.0632 µM
[17] = RPMI 5 mM glucose + 10% FBS, 0.19 µM
[18] = RPMI 5 mM glucose + 10% FBS, 0.569 µM
[19] = RPMI 5 mM glucose + 10% FBS, 1.71 µM
[20] = RPMI 5 mM glucose + 10% FBS, 5.12 µM
[21] = RPMI 5 mM glucose + 10% FBS, 15.4 µM
[22] = RPMI 5 mM glucose + 10% FBS, 46.1 µM
[23] = RPMI 5 mM glucose + 10% dialyzed FBS, 0.000781 µM
[24] = RPMI 5 mM glucose + 10% dialyzed FBS, 0.00234 µM
[25] = RPMI 5 mM glucose + 10% dialyzed FBS, 0.00702 µM
[26] = RPMI 5 mM glucose + 10% dialyzed FBS, 0.0211 µM
[27] = RPMI 5 mM glucose + 10% dialyzed FBS, 0.0632 µM
[28] = RPMI 5 mM glucose + 10% dialyzed FBS, 0.19 µM
[29] = RPMI 5 mM glucose + 10% dialyzed FBS, 0.569 µM
[30] = RPMI 5 mM glucose + 10% dialyzed FBS, 1.71 µM
[31] = RPMI 5 mM glucose + 10% dialyzed FBS, 5.12 µM
[32] = RPMI 5 mM glucose + 10% dialyzed FBS, 15.4 µM
[33] = RPMI 5 mM glucose + 10% dialyzed FBS, 46.1 µM

Structure (SMILES)	cell viability [1]	cell viability [2]	cell viability [3]	cell viability [4]	cell viability [5]	cell viability [6]	cell viability [7]	cell viability [8]	cell viability [9]	cell viability [10]	cell viability [11]	cell viability [12]	cell viability [13]	cell viability [14]	cell viability [15]	cell viability [16]	cell viability [17]	cell viability [18]	cell viability [19]	cell viability [20]	cell viability [21]	cell viability [22]	cell viability [23]	cell viability [24]	cell viability [25]	cell viability [26]	cell viability [27]	cell viability [28]	cell viability [29]	cell viability [30]	cell viability [31]	cell viability [32]	cell viability [33]
CCN(CC)CCN1C(=O)\C(=N/C2=CC=CC=C12)CC3=CC=C(OC)C=C3	111%	117%	99.1%	118%	119%	110%	115%	115%	109%	113%	116%	96.1%	101%	117%	109%	97.4%	96.6%	107%	102%	111%	101%	97.7%	98.4%	102%	113%	111%	115%	119%	119%	121%	111%	101%	102%
COc1cccc2c1C(=O)c1c(O)c3c(c(O)c1C2=O)C[C@@](O)(C(C)=O)C[C@@H]3O[C@H]1C[C@H](N)[C@H](O)[C@H](C)O1	98.6%	107%	108%	114%	111%	81.5%	12.4%	7.35%	5.97%	5.19%	4.98%	99%	104%	106%	99.2%	108%	78.6%	9.07%	4.79%	4.48%	5.23%	3.6%	91.6%	113%	107%	115%	108%	73.4%	9.73%	6.25%	4.58%	4.86%	4.92%

Reference: the supplement of paper PMC11451515
